The source of these data is patent US20100190743A1, “Method and Composition for Treatment of a Mucosal Tissue Disorder” (Chitogenics, Inc., priority 2005, published 2010).

Experiment [1] has as its system rat model of Interstitial Cystitis. In words: Efficacy of sNOCC in reducing inflammation in a rat model of interstitial cystitis (Example 2), bladder histology inflammatory score. The format is in vivo. As to the method: Animals: Female Sprague-Dawley rats (225-250 g) were purchased from Charles River Laboratories. Animals were provided with food and water ad libitum. Intra-vesicular inoculation of protamine sulfate (PS) and LPS: Rats were anesthetized with sodium pentobarbital (65 mg/kg). The surface area around the urethral opening was swabbed with 70% isopropyl alcohol and Betadine. A lubricated sterile catheter (PE-50), handled with sterile gloves, was inserted into the bladder through the urethral opening. The catheter was connected to a 1 ml syringe via a 25 G needle and the bladder was emptied as described above. One group of rats was inoculated with 1 ml PS (10 mg/ml) in phosphate buffered saline (PBS) into the bladder via the catheter. After 45 minutes, the bladders were emptied, washed with PBS, then given a second treatment with 1 ml LPS (750 μg/ml) in PBS for 30 minutes. […]
The parameters of inflammation measured were: increased venous blood vessel size and volume (venous congestion), edema, cellular infiltration, and epithelial damage. […] The parameters were measured by a blinded observer using a five point score with 0 being the least severe and 5 being the most severe. A total inflammatory score was calculated for each rat by adding together the scores of the four inflammatory parameters. A mean total inflammatory score was calculated for each group. […]

Experiment [2] deals with interstitial cystitis. To be noted: cited from earlier work.

In the case of `Nc1ccc(O)c(C(=O)O)c1` [saline + 5ASA, 5-aminosalicylic acid], the “Mean Inflammatory Score (±SEM)” value in experiment [1] (agent 1 ml intravesical 1 day after PS/LPS, sacrifice day 5 post inoculation, total of four parameters each scored 0-5, saline control 12.7 (±1.5)) is listed as 7.9 (±1.8). For the same compound, the “% reduction of inflammation from saline treated control” value in experiment [1] (from mean inflammatory score, day 5 post inoculation) turned out to be 37.5%.
Take oxychlorosene sodium: the “results relative to instillation of DMSO” value in experiment [2] (Messing et al. 1978) is given as “Equivalent results”.
Turning to `C[S+](C)[O-]` [DMSO, dimethylsulfoxide], the “average length of response” value in experiment [2] (instillation into the bladder for six to eight weeks) is “six”. For the same compound, the response rate in experiment [2] (instillation into the bladder for six to eight weeks, placebo 18%) is given as 53%.
